Source: patent US8367873B2, “Phenyl-substituted bicyclooctane-1,3-dione derivatives” (Bayer Cropscience AG, priority 2008, dated 2013)

Experiments:
Format in all cases: in vivo
Details in all cases: post-emergence method, 80 g/ha
Alopecurus myosuroides = test: Herbicidal post-emergence action
Description: (§1) Seeds of monocotylidonous and dicotylidonous weed and crop plants are placed in sandy loam in wood fibre pots, covered with soil and cultivated in a greenhouse under good growth conditions. Two to three weeks after sowing, the test plants are treated at the one-leaf stage. The test compounds, formulated as wettable powders (WP), are then with a water application rate of 600 l/ha (converted), with 0.2% of wetting agent added, sprayed onto the green parts of the plants in different amounts. After the test plants have been kept in the greenhouse under optimum growth conditions for about three weeks, the effect of the preparations is assessed visually in comparison to untreated controls (herbicidal effect in percent: 100% effect=the plants have died, 0% effect=like control plants).

Echinocloa crus-galli = test: Herbicidal post-emergence action
Description: as §1

Lolium multiflorum = test: Herbicidal post-emergence action
Description: as §1

Setaria viridis = test: Herbicidal post-emergence action
Description: as §1

[1] = system: monocotylidonous and dicotylidonous weed and crop plants; test: Herbicidal post-emergence action (other test plants)
Description: as §1

| SMILES | herbicidal effect against ALOMY (Alopecurus myosuroides) (Alopecurus myosuroides) [%] | herbicidal effect against ECHCG (Echinochloa crus-galli) (Echinocloa crus-galli) [%] | herbicidal effect against LOLMU (Lolium multiflorum) (Lolium multiflorum) [%] | herbicidal effect against SETVI (Setaria viridis) (Setaria viridis) [%] | herbicidal effect against AVEFA (Avena fatua) [1] [%] |
| --- | --- | --- | --- | --- | --- |
| Cc1cc(C)c(C2=C(OC(=O)CC(C)C)C3CC(=O)CC3C2=O)c(C)c1 (centres unmarked) [I-b-56] | 20 | 100 | 0 | 100 | 0 |
| CCC(=O)OC1=C(c2c(C)cc(C)cc2C)C(=O)C2CC(=O)CC12 (centres unmarked) [I-b-57] | 0 | 100 | 0 | 100 | 0 |
| CCOC(=O)OC1=C(c2c(C)cc(C)cc2C)C(=O)C2CC3(CC12)OCC(C)CO3 (mixture of isomers) [I-c-48] | 20 | 90 | 100 | 80 | 20 |
| COCC(=O)OC1=C(c2c(C)cc(C)cc2C)C(=O)C2CC3(COC(C)(C)O3)CC12 (mixture of isomers) [I-b-47] | 90 | 100 | 90 | 0 | 80 |
| CCc1cc(C)cc(C)c1C1=C(OC(=O)C(C)(C)C)C2CC(=O)CC2C1=O (centres unmarked) [I-b-71] | 0 | 100 | 0 | 100 | 0 |
| COc1cc(C)cc(C)c1C1=C(O)C2CC(=O)CC2C1=O (centres unmarked) [I-a-46] | 0 | 100 | 0 | 40 | 0 |
| Cc1cc(C)c(C2=C([O-])C3CC4(CC3C2=O)OCCCCO4)c(C)c1.[Na+] (centres unmarked) [I-f-10] | 100 | 90 | 100 | 90 | 80 |
| CON=C1CC2C(=O)C(c3c(C)cc(C)cc3C)=C(O)C2C1 (centres unmarked) [I-a-44] | 20 | 100 | 20 | 80 | 0 |
| CCC(=O)OC1=C(c2c(CC)cc(C)cc2CC)C(=O)C2CC3(CC12)SCCCS3 (centres unmarked) [I-b-9] | 90 | 90 | 40 | 40 | 0 |
| Cc1cc(C)c(C2=C(OC(=O)OC(C)C)C3CC4(COC(C)(C)O4)CC3C2=O)c(C)c1 (mixture of isomers) [I-c-55] | 80 | 100 | 100 | 30 | 20 |
